{"source": "ChEMBL document CHEMBL4706574", "about": "“Preparation, characterization, antioxidant evaluation of new curcumin derivatives and effects of forming HSA-bound nanoparticles on the stability and activity” (Eur J Med Chem, 2020)", "key": {"[1]": {"test_system": "PC-12", "assay": "Cytoprotective activity against H2O2-induced cell death in […] assessed as cell viability at 30 to 100 uM incubated for 0.5 hrs followed by H2O2 stimulation and measured after 2 hrs by MTT assay", "type": "functional, cell-based", "settings": "dose 30-100 µM, time 2.5 hrs"}, "[2]": {"test_system": "PC-12", "assay": "Cytoprotective activity against H2O2-induced cell death in […] assessed as cell viability at 10 uM incubated for 0.5 hrs followed by H2O2 stimulation and measured after 2 hrs by MTT assay", "type": "functional, cell-based", "settings": "time 2.5 hrs"}, "[3]": {"test_system": "PC-12", "assay": "Cytoprotective activity against H2O2-induced cell death in […] assessed as cell viability at 0.1 uM incubated for 0.5 hrs followed by H2O2 stimulation and measured after 2 hrs by MTT assay", "type": "functional, cell-based", "settings": "time 2.5 hrs"}, "[4]": {"assay": "Cytoprotective activity against H2O2-induced cell death in […] assessed as cell viability at 30 uM incubated for 0.5 hrs followed by H2O2 stimulation and measured after 2 hrs by MTT assay relative to control", "type": "functional", "settings": "Rattus norvegicus, time 2.5 hrs, read-out: Activity"}, "[5]": {"test_system": "PC-12", "assay": "Cytoprotective activity against H2O2-induced cell death in […] assessed as cell viability at 100 uM incubated for 0.5 hrs followed by H2O2 stimulation and measured after 2 hrs by MTT assay", "type": "functional, cell-based", "settings": "Rattus norvegicus, time 2.5 hrs"}, "[6]": {"test_system": "K562", "assay": "Antiproliferative activity against human K562 cells assessed as cell viability at 10 uM incubated for 48 hrs by MTT assay (reference value: 100 %)", "type": "functional", "settings": "read-out: Activity"}, "[7]": {"test_system": "HCT-116", "assay": "Antiproliferative activity against human HCT-116 cells assessed as cell viability at 10 uM incubated for 48 hrs by MTT assay (reference value: 100 %)", "type": "functional", "settings": "read-out: Activity"}, "[8]": {"test_system": "HepG2", "assay": "Antiproliferative activity against human HepG2 cells assessed as cell viability at 10 uM incubated for 48 hrs by MTT assay (reference value: 100 %)", "type": "functional", "settings": "read-out: Activity"}, "[9]": {"assay": "Stability of compound in PBS buffer at pH 7.4 incubated for 48 hrs by UV-vis spectrophotometry", "type": "physicochemical", "settings": "pH 7.4, 48 h"}}, "note": "Calls of active or inactive are those of the source. No cut-off for these calls is given here.", "data": [{"compound": "C=CCc1cc(/C=C/c2cc(/C=C/c3cc(CC=C)c(O)c(OC)c3)[nH]n2)cc(OC)c1O", "values": [{"measurement": "Activity", "setting": "[1]; Rattus norvegicus", "value": "Active"}]}, {"compound": "O=C(O)c1cc(O)c(O)c(O)c1", "values": [{"measurement": "Activity", "setting": "[2]", "value": "inactive"}, {"measurement": "Activity", "setting": "[1]", "value": "Active"}]}, {"compound": "C=CCc1cc(/C=C/C(O)=C/C(=O)/C=C/c2cc(CC=C(C)C)c(O)c(OC)c2)cc(OC)c1O", "values": [{"measurement": "Activity", "setting": "[3]", "value": "Active"}, {"measurement": "Activity", "setting": "[1]; Rattus norvegicus", "value": "Active"}, {"measurement": "viability at 30 µM", "setting": "[4]", "value": 100, "unit": "%"}]}, {"compound": "Oc1ccc(/C=C/c2cc(O)cc(O)c2)cc1", "values": [{"measurement": "Activity", "setting": "[2]", "value": "inactive"}, {"measurement": "Activity", "setting": "[1]; Rattus norvegicus", "value": "Active"}]}, {"compound": "COc1cc(/C=C/C(O)=C/C(=O)/C=C/c2cc(CC=C(C)C)c(O)c(OC)c2)ccc1O", "values": [{"measurement": "Activity", "setting": "[1]; Rattus norvegicus", "value": "Active"}, {"measurement": "Activity", "setting": "[5]", "value": "inactive"}, {"measurement": "viability at 30 µM", "setting": "[4]", "value": 100, "unit": "%"}]}, {"compound": "COc1cc(/C=C/C(=O)CC(=O)/C=C/c2ccc(O)c(OC)c2)ccc1O", "note": "[CURCUMIN]", "values": [{"measurement": "Activity", "setting": "[1]; Rattus norvegicus", "value": "Active"}, {"measurement": "viability at 10 µM", "setting": "[6]", "value": 65.4, "unit": "%"}, {"measurement": "viability at 10 µM", "setting": "[7]", "value": 10.3, "unit": "%"}, {"measurement": "viability at 10 µM", "setting": "[8]", "value": 58.8, "unit": "%"}, {"measurement": "Stabilty", "setting": "[9]", "value": "Unstable"}]}, {"compound": "COc1cc(/C=C/c2cc(/C=C/c3cc(CC=C(C)C)c(O)c(OC)c3)[nH]n2)cc(CC=C(C)C)c1O", "values": [{"measurement": "Activity", "setting": "[1]; Rattus norvegicus", "value": "Active"}, {"measurement": "Activity", "setting": "[5]", "value": "inactive"}, {"measurement": "viability at 30 µM", "setting": "[4]", "value": 100, "unit": "%"}]}, {"compound": "C=CCc1cc(/C=C/C(=O)/C=C(O)/C=C/c2ccc(O)c(OC)c2)cc(OC)c1O", "values": [{"measurement": "Activity", "setting": "[1]; Rattus norvegicus", "value": "Active"}, {"measurement": "Activity", "setting": "[5]", "value": "inactive"}, {"measurement": "viability at 30 µM", "setting": "[4]", "value": 100, "unit": "%"}]}, {"compound": "COc1cc(/C=C/C(=O)/C=C(O)/C=C/c2cc(CC=C(C)C)c(O)c(OC)c2)cc(CC=C(C)C)c1O", "values": [{"measurement": "Activity", "setting": "[3]", "value": "Active"}, {"measurement": "Activity", "setting": "[1]; Rattus norvegicus", "value": "Active"}, {"measurement": "viability at 10 µM", "setting": "[6]", "value": 64.3, "unit": "%"}, {"measurement": "Activity", "setting": "[5]", "value": "Active"}, {"measurement": "viability at 10 µM", "setting": "[7]", "value": 61.1, "unit": "%"}, {"measurement": "viability at 30 µM", "setting": "[4]", "value": 100, "unit": "%"}, {"measurement": "viability at 10 µM", "setting": "[8]", "value": 64.3, "unit": "%"}, {"measurement": "Stabilty", "setting": "[9]", "value": "Unstable"}]}, {"compound": "C=CCc1cc(/C=C/C(=O)/C=C(O)/C=C/c2cc(CC=C)c(O)c(OC)c2)cc(OC)c1O", "values": [{"measurement": "Activity", "setting": "[3]", "value": "Active"}, {"measurement": "Activity", "setting": "[1]; Rattus norvegicus", "value": "Active"}, {"measurement": "viability at 30 µM", "setting": "[4]", "value": 100, "unit": "%"}]}, {"compound": "C=CCc1cc(/C=C/c2cc(/C=C/c3cc(CC=C(C)C)c(O)c(OC)c3)n[nH]2)cc(OC)c1O", "values": [{"measurement": "Activity", "setting": "[1]; Rattus norvegicus", "value": "Active"}]}, {"compound": "COc1cc(/C=C/c2cc(/C=C/c3cc(CC=C(C)C)c(O)c(OC)c3)n[nH]2)ccc1O", "values": [{"measurement": "Activity", "setting": "[1]; Rattus norvegicus", "value": "Active"}]}, {"compound": "C=CCc1cc(/C=C/c2cc(/C=C/c3ccc(O)c(OC)c3)[nH]n2)cc(OC)c1O", "values": [{"measurement": "Activity", "setting": "[1]; Rattus norvegicus", "value": "Active"}]}]}
